The results in this text go back to US12016906B2, “Pharmaceutical composition for anaemia” (Frimline Private Limited, priority 2018, dated 2024).

What all share (assay type): in vivo, male Wistar rats (Rat Rattus)
Experiment [1] has as its system Iron deficient Diet (IDD) induced anaemia in rats. Briefly: Hepcidin level in IDD induced anaemia in rats. Further details: Hepcidin % Change compared to Disease control: concentration or dose not given beside the values. The conditions noted are these: for Hepcidin Post-treatment: Day 98, after 9 weeks of treatment p.o.; for Hepcidin Post-treatment / Hepcidin % Change compared to Disease control: IDD rats; for Hepcidin % Change compared to Disease control: Day 98. The method, then: (§1) Screening of pharmaceutical composition/formulation comprising combination of Lactoferrin+Guanosine Nucleotide or a pharmaceutically acceptable salt thereof with or without optional ingredients against Iron deficient Diet (IDD) induced anaemia in rats. For this study different parameters like Hb Level, Hematocrit level, Serum Iron level, Ferroportin level, Serum Ferritin level, Hepcidin level and IL-6 Level were evaluated. The following trials were carried out by taking reference from Wang Xl, Liu S, Xu H, Yan W, Effects of recombinant human lactoferrin on improving the iron status of IDA. Wei Sheng Yan Jiu. 2012 January; 41(1):13-7, 22 and Nora M. El-Sheikh, the Protective Effect of Soybean and Thyme on Iron Deficiency Anemia in Rats, the Egyptian Journal of Hospital Medicine (2008) Vol., 33: 510-520 as available.
(§2) 72 male Wistar rats (Rat Rattus) (6 per group) were maintained in animal house in a light/dark atmosphere based on a 12 hour cycle having temperature and relative humidity in the range of 22±3° C. and 30-70% respectively. To maintain the appropriate conditions, temperature and relative humidity were recorded three times daily. All animals were acclimatized for a minimum period of five days. Animals were maintained in the test setup for minimum 30 minutes once during the acclimatization period to reduce the stress. Animals were weighed on the day of receipt and observed daily for abnormalities if any. Detailed records of acclimatization were also maintained. Rats were housed 6 per cage in clean, sterilized Polypropylene cages. During complete experiment, animals were supplied with the standard certified rat pellet feed (manufactured by Keval sales corporation, Vadodara) and drinking water treated by the reverse osmosis ad libitum. Analysis reports for microbial load and contaminants in feed and water and nutrient content of feed were also retained.
(§3) In order to evaluate the activity against IDD induced anaemia, seventy two (72) rats were screened and divided in to twelve groups. For a comparative analysis, groups were divided as normal control (Group 1), disease control (Group 2), treatment groups with individual components (Group 3, Group 4, Group 5, Group 6 and Group 7 as Lactoferrin, Disodium Guanosine monophosphate (GMP), Guanosine diphosphate (GDP), Guanosine triphosphate (GTP) and Vitamin C respectively), test composition/formulation of the present invention (Group 8 as combination of Lactoferrin Disodium GMP, Group 9 as combination of Lactoferrin GDP, Group 10 as combination of Lactoferrin+GTP, […] as combination of Lactoferrin+Disodium GMP+Vitamin C) and reference standard drug (Group 12). Table 1 provides the details of the various groups and treatments conducted in the trial wherein group no. G3 to G12 are treatment groups.
(§4) Group nos. 2 to 12 animals under consideration were administered IDD (3 mg Fe/Kg of diet) for the period of 3 weeks, while group 1 animal received Normal pellet diet (35 mg Fe/Kg of diet).
(§5) After 5 weeks (35 days) of respective dietary intervention, once again hemoglobin level, HCT % level and serum iron level were analyzed and then, respective drug treatment was started with continuous administration of Iron deficient diets in all groups as mentioned above in Table 1.
(§6) After 9 weeks of respective drug treatment (total after 14 weeks from start of the study—98 days), various biochemical parameters were measured to evaluate the effect of respective individual and combination therapy on iron deficient anaemia model (G3 to G12).
(§7) • A. Clinical observations (Daily) • B. Mortality (Daily) • C. […]

For experiment [2] the test system is unchanged. As to the kind of experiment: IL-6 level in IDD induced anaemia in rats. The note with it: for IL-6 Post-treatment: Day 98, after 9 weeks of treatment p.o.; for IL-6 Post-treatment / IL-6 % Change compared to Disease control: IDD rats; for IL-6 % Change compared to Disease control: Day 98. The method, then:
as §1, with “Jiu.” for “Jiu. 2012 January; 41(1):13-7, 22 and Nora M. El-Sheikh, the Protective Effect of Soybean and Thyme on Iron Deficiency Anemia in Rats, the Egyptian Journal of Hospital Medicine (2008) Vol., 33: 510-520 as available.”
as §2, §3, §5, §6
• A. Clinical observations (Daily) • B. Mortality (Daily) • C. Body weight (Initially and then weekly till the end of study) • D. After 3 and 5 weeks of Iron deficient diet supplement • (i) Hematological parameters (RBC count, Hb Level, Hematocrit % MCV, MCH and MCHC). • (ii) Serum Iron Level. • E. At the end of 14 weeks of study • (i) Hematological parameters (RBC count, Hb Level, Hematocrit %, MCV, MCH and MCHC). • (ii) Biochemical parameters (Serum Iron level, Ferroportin level, Serum Ferritin level, Hepcidin level, IL-6 level). Statistical Analysis: One way ANOVA followed by Tuckey's test was performed and p value<0.05 is considered to be statistically significant. […] Hematology: (after 3 Weeks and 5 Weeks of Feed Intervention and after 9 Weeks of Treatment)

The test system is the same in experiment [3]. As to the kind of experiment: Ferroportin level in IDD induced anaemia in rats. The arrangement: Ferroportin % Change compared to Disease control: concentration or dose not given beside the values. The note with it: for Ferroportin Post-treatment: Day 98, after 9 weeks of treatment p.o.; for Ferroportin Post-treatment / Ferroportin % Change compared to Disease control: IDD rats; for Ferroportin % Change compared to Disease control: Day 98. The method, then:
as §1, §2, §3, §4, §5, §6, §7

Experiment [4] has the same test system. As to the kind of experiment: Serum ferritin level in IDD induced anaemia in rats. The arrangement: Ferritin % Change compared to Disease control: concentration or dose not given beside the values. The note with it: for Ferritin Post-treatment: Day 98, after 9 weeks of treatment p.o.; for Ferritin Post-treatment / Ferritin % Change compared to Disease control: IDD rats; for Ferritin % Change compared to Disease control: Day 98. The method, then: as §1, §2, §3, §4, §5, §6, §7

The test system is the same in experiment [5]. Briefly: Serum iron level in IDD induced anaemia in rats. The arrangement: Serum IRON % Change compared to Disease control: concentration or dose not given beside the values. The conditions noted are these: for Serum IRON Pre-treatment: Day 35, before treatment; for Serum IRON Pre-treatment / Serum IRON Post-treatment / Serum IRON % Change compared to Disease control: IDD rats; for Serum IRON Post-treatment: Day 98, after 9 weeks of treatment p.o.; for Serum IRON % Change compared to Disease control: Day 98. The method, then:
as §1, §2, §3, §4
(§8) After 3 weeks of respective dietary intervention, the level of Hemoglobin was determined in each animal. Looking at low increase in hemoglobin. Hematocrit % (HCT %) level and serum iron level, further dietary intervention was continued for additional two (2) weeks.
as §5, §6, §7

Experiment [6] has the same test system. Briefly: Hematocrit % level in IDD induced anaemia in rats. The conditions noted are these: for Hematocrit Pre-treatment: Day 35, before treatment; for Hematocrit Pre-treatment / Hematocrit Post-treatment / Hematocrit % Change compared to Disease control: IDD rats; for Hematocrit Post-treatment: Day 98, after 9 weeks of treatment p.o.; for Hematocrit % Change compared to Disease control: Day 98. The arrangement: Hematocrit % Change compared to Disease control: concentration or dose not given beside the values. The method, then:
as §1, §2, §3, §4, §8, §5, §6, §7

The test system is the same in experiment [7]. As to the kind of experiment: Hb level in IDD induced anaemia in rats. The arrangement: Hemoglobin % Change compared to Disease control: concentration or dose not given beside the values. The note with it: for Hemoglobin Pre-treatment: Day 35, before treatment; for Hemoglobin Pre-treatment / Hemoglobin Post-treatment / Hemoglobin % Change compared to Disease control: IDD rats; for Hemoglobin Post-treatment: Day 98, after 9 weeks of treatment p.o.; for Hemoglobin % Change compared to Disease control: Day 98. The method, then: as §1, with “Jiu.” for “Jiu. 2012 January; 41(1):13-7, 22 and Nora M. El-Sheikh, the Protective Effect of Soybean and Thyme on Iron Deficiency Anemia in Rats, the Egyptian Journal of Hospital Medicine (2008) Vol., 33: 510-520 as available.”
as §2, §3
After 3 weeks of respective dietary intervention, the level of Hemoglobin was determined in each animal.
as §5, §6
• A. Clinical observations (Daily) • B. Mortality (Daily) • C. Body weight (Initially and then weekly till the end of study) • D. After 3 and 5 weeks of Iron deficient diet supplement • (i) Hematological parameters (RBC count, Hb Level, Hematocrit % MCV, MCH and MCHC). • (ii) Serum Iron Level. • E. At the end of 14 weeks of study • (i) Hematological parameters (RBC count, Hb Level, Hematocrit %, MCV, MCH and MCHC). • (ii) Biochemical parameters (Serum Iron level, Ferroportin level, Serum Ferritin level, Hepcidin level, IL-6 level).

Where [8] appears, read: rats on iron deficient diet, after treatment for 9 weeks, compared to disease control group (G2).
Setting [9] is: rats on iron deficient diet, after treatment of 9 weeks, compared to disease control group (G2).

Structures are written as SMILES.

Turning to `Nc1nc2c(ncn2[C@@H]2O[C@H](COP(=O)([O-])[O-])[C@@H](O)[C@H]2O)c(=O)[nH]1.[Na+].[Na+]` [Disodium GMP, Disodium Guanosine 5-Monophosphate], in experiment [1], the “Hepcidin Post-treatment” value came to 4303 ng/mL and the “Hepcidin % Change compared to Disease control” value (from here on “Hepcidin % Change”) is given as −2.2%. Moreover, in experiment [2], the “IL-6 Post-treatment” value was 62.9 pg/mL and the “IL-6 % Change compared to Disease control” value (from here on “IL-6 % Change”) stood at 0.9%. Also, in experiment [3], the “Ferroportin Post-treatment” value stood at 3.0 ng/mL and the “Ferroportin % Change compared to Disease control” value (from here on “Ferroportin % Change”) is 11.4%. In addition, in experiment [4], the “Ferritin Post-treatment” value came out at 700 ng/mL and the “Ferritin % Change compared to Disease control” value (“Ferritin % Change” for short) is given as −5.4%.
For `Nc1nc2c(ncn2[C@@H]2O[C@H](COP(=O)([O-])[O-])[C@@H](O)[C@H]2O)c(=O)[nH]1.[Na+].[Na+]` [Disodiurn GMP], in experiment [5], the “Serum IRON Pre-treatment” value was found to be 2.82 ppm, the “Serum IRON Post-treatment” value was 3.43 ppm and the “Serum IRON % Change compared to Disease control” value (from here on “Serum IRON % Change”) is recorded as 28.8%. Moreover, in experiment [6], the “Hematocrit Pre-treatment” value is 35.35%, the “Hematocrit Post-treatment” value turned out to be 38.89% and the “Hematocrit % Change compared to Disease control” value (“Hematocrit % Change” below) is on record as 51.3%. Moreover, in experiment [7], the Hemoglobin Pre-treatment turned out to be 8.54 g/dL, the Hemoglobin Post-treatment worked out at 9.18 g/dL and the “Hemoglobin % Change compared to Disease control” value (shortened to “Hemoglobin % Change”) is 40.8%.
Take `O=S(=O)([O-])[O-].[Fe+2]` [FeSO4, ferrous sulphate, reference compound]: in experiment [5], the “Serum IRON Pre-treatment” value is given as 2.43 ppm, the “Serum IRON Post-treatment” value is listed as 9.84 ppm and the “Serum IRON % Change” value was 269.2%. Besides, the “Serum Iron level” value in experiment [5] (setting [8]) is given as “significant increase”. Further, in experiment [1], the “Hepcidin Post-treatment” value was found to be 4260 ng/mL and the “Hepcidin % Change” value is listed as −3.2%. Moreover, the Hepcidin level result in experiment [1] (setting [9]) is “no significant change”. Further, in experiment [6], the “Hematocrit Pre-treatment” value was 35.10%, the “Hematocrit Post-treatment” value was found to be 47.22% and the “Hematocrit % Change” value is reported as 83.7%. Moreover, the “% Hematocrit level” value in experiment [6] (setting [8]) is recorded as “significant increment”. Further, in experiment [2], the “IL-6 Post-treatment” value came out at 60.4 pg/mL and the “IL-6 % Change” value is listed as −3.2%. Also, the IL-6 level result in experiment [2] (setting [9]) is reported as “no significant change”. Further, in experiment [7], the Hemoglobin Pre-treatment turned out to be 8.71 g/dL, the Hemoglobin Post-treatment amounted to 15.2 g/dL and the “Hemoglobin % Change” value was 134.0%. In addition, in experiment [7] (setting [8]), the Hb level entry is “significant increment”. In experiment [3], the “Ferroportin Post-treatment” value turned out to be 3.0 ng/mL and the “Ferroportin % Change” value stood at 12.5%. For the same compound, in experiment [3] (setting [9]), the Ferroportin level result is on record as “no significant change”. In addition, in experiment [4], the “Ferritin Post-treatment” value was 720 ng/mL and the “Ferritin % Change” value is given as −2.7%. The “Serum Ferritin level” value in experiment [4] (setting [9]) is listed as “no significant change”.
As for `Nc1nc2c(ncn2[C@@H]2O[C@H](COP(=O)(O)OP(=O)(O)O)[C@@H](O)[C@H]2O)c(=O)[nH]1` [GDP, Guanosine diphosphate], in experiment [5], the “Serum IRON Pre-treatment” value is reported as 3.30 ppm, the “Serum IRON Post-treatment” value was determined as 3.99 ppm and the “Serum IRON % Change” value was found to be 49.7%. In experiment [1], the “Hepcidin Post-treatment” value turned out to be 4351 ng/mL and the “Hepcidin % Change” value is listed as −1.1%. In experiment [6], the “Hematocrit Pre-treatment” value came out at 35.61%, the “Hematocrit Post-treatment” value is reported as 37.77% and the “Hematocrit % Change” value is listed as 46.9%. Also, in experiment [2], the “IL-6 Post-treatment” value stood at 62.2 pg/mL and the “IL-6 % Change” value is −0.3%. Moreover, in experiment [7], the Hemoglobin Pre-treatment turned out to be 8.62 g/dL, the Hemoglobin Post-treatment was determined as 9.34 g/dL and the “Hemoglobin % Change” value came to 43.4%. Also, in experiment [3], the “Ferroportin Post-treatment” value stood at 3.0 ng/mL and the “Ferroportin % Change” value was 11.1%. Besides, in experiment [4], the “Ferritin Post-treatment” value is 702 ng/mL and the “Ferritin % Change” value is −5.1%.
